Experimental data published in paper PMC12624434 (ACS Pharmacology & Translational Science, 2025).
Values joined by “and” are separate entries in the source; they are usually repeats but may differ in a detail not shown here. Equal entries are not always repeated. “Also recorded” adds a separate entry of the source. Where two headings read alike, the source gives them in different places. Marks after values point to notes of the source that are not given here.

Assays:
NRP1 b1 domain [1] = target: T1, NRP1 b1 domain (Homo sapiens, UniProt O14786); experiment: SPR binding to immobilized NRP1 b1 domain (Biacore 4000, CM5 chip)
T1 construct: with the purified recombinant NRP1 b1 domain immobilized on the chip; inferred from Ni-NTA capture), TEV-cleavable (cleaved yes); made in house; host or cells: E. coli Rosetta (DE3)
T1 sequence (O14786 275-424 limits assumed): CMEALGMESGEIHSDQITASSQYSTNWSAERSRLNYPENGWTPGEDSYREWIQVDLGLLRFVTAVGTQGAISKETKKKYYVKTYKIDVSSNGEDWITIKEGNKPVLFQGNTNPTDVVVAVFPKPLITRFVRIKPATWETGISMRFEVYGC
Method: Surface Plasmon Resonance experiments were performed using a Biacore 4000 instrument at a constant temperature of 25 °C. Sensor chips, buffer stock solutions, and immobilization reagents were purchased from GE Healthcare. Recombinant human NRP1-b1 was produced in-house and recombinant human NRP1-ECD (extracellular domain) was purchased from ACRO (catalogue number NR1-H5A228). All other reagents were obtained from Sigma.
PBS containing 0.05% surfactant P20 was used as the running buffer during immobilization. NRP1-b1 was immobilized onto a CM5 chip using random amine coupling. The four flow cells were treated in the same way to optimize throughput. In summary, spots 1 and 2 were activated with the coupling reagents EDC and NHS for 10 min. NRP1-b1 at a concentration of 20 μg/mL in 10 mM sodium acetate pH 5 was injected onto the surface for 10 and 5 min in spots 1 and 2, respectively to generate surfaces with high and low density. […] The unmodified spot 3 was used as a reference.
PBS buffer containing 0.05% surfactant P20 and 3% DMSO was used as the running buffer and sample dilution buffer throughout these experiments. Dose–responses were obtained using a 2-fold sample dilution from 16 μM to 31 nM, using an injection time of 60 s. Surface regeneration between injections was not necessary, but a wash step with 1 M NaCl was included after injection of the highest concentration sample for each compound.
Binding curves were corrected for variations in DMSO concentration and normalized by molecular weight. Binding results to high and low-density surfaces were processed independently and the average ± SD is presented. K Ds reported are derived from steady-state binding responses and therefore correspond to the equilibrium binding affinity of the compounds.

NRP1-a1,b1 = target: T2, NRP1-a1,b1 (Homo sapiens, UniProt O14786); experiment: bt-VEGFA cell-free competition binding assay (plate-based)
T2 sequence (O14786 273-427 limits assumed): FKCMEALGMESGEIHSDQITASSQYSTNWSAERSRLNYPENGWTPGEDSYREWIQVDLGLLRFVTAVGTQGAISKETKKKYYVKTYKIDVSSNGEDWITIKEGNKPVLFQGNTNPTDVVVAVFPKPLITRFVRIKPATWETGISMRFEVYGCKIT
Method: The assay was conducted as previously described. Briefly, the 96-well plates were precoated with NRP1 protein at 3 μg/mL overnight at 4 °C. On the following day, the plates were treated with blocking buffer (PBS containing 1%1% BSA) and washed three times with wash buffer (PBS containing 0.1% Tween-20). The various concentrations of compounds diluted in PBS containing 1%1% DMSO were added, followed by addition of 0.25 nM of bt-VEGFA165. After 2 h of incubation at room temperature, the plates were washed three times with wash buffer. The bound bt-VEGFA165 to NRP1 was detected by streptavidin– horseradish peroxidase conjugates and the enzyme substrate, and measured using a Tecan Genius plate reader at 450 nm with a reference wavelength at 595 nm. Nonspecific binding was determined in the absence of NRP1-coated wells of the plates.

[2] = tested on: vascular permeability of perfused mouse retina blood vessels; experiment: Ex vivo retina permeability assay (sulforhodamine B extravasation); assay type: cell-based
Description: C57Bl/6J mice were culled through CO2 overdose before proceeding with the cannulation of the common carotid arteries and perfusion of the vasculature, as previously described. Each eye was subsequently removed and enucleated. The retina was isolated with the attached sclera, flattened onto a silicone base (SYLGARD 184, Merck), and held in position by a metal ring and pins. Retinal explants were visualized with an Olympus 10× objective on an upright Axiophot fluorescence microscope (Zeiss) and continuously superfused with Krebs solution (124 mM NaCl, 5 mM KCl, 2 mM MgSO4, 22 mM […], 0.125 mM NaH2PO4 and 2 mM CaCl2, pH 7.4) supplemented with 5 mM glucose and 0.1% BSA w/v. A radial vein was injected with 1 mg/mL sulforhodamine B (479 Da; Merck) in Krebs solution using a glass needle to visualize the vasculature under a TRITC filter with an Olympus 40× water immersion objective. For permeability measurements, the fluorescence of a selected microvessel was recorded continuously by time-lapse imaging with a CCD camera (Hamamatsu) and HCImageLive software (Hamamatsu) for at least 30 s to obtain a baseline. VEGFA164 or EG00229 in Krebs solution were then added dropwise onto the retina. […] Time-lapse series were analyzed using ImageJ (NIH Bethesda). […] Permeability measurements from at least three different ex vivo retinal preparations were combined and expressed as mean ± SD. […]

[3] = tested on: total Na+ currents in rat DRG neurons; experiment: Whole-cell patch-clamp of Na+ currents in dissociated DRG neurons; assay type: cell-based; conditions: for V 1/2 activation, total Na+ / V 1/2 inactivation, total Na+: mean ± SEM (n cells)
Method: Recordings were obtained from acutely dissociated DRG neurons obtained from female rats as described earlier. Patch-clamp recordings were performed at room temperature (22–24 °C). Currents were recorded using an EPC 10 Amplifier-HEKA (HEKA Elektronik, Ludwigshafen, Germany) linked to a computer with Patchmaster software.
To determine the effect of VEGFA application on voltage-gated sodium currents, we incubated DRG neurons for 30 min with recombinant rat VEGFA, 1 nM (Cat#P4853, Abnova, Taipei, Taiwan) before whole-cell patch-clamp recordings. […] For the control condition, DRG neurons were incubated for 30 min with DMSO at a final concentration of 0.1%.
For Na^+ current (I Na+) recordings, the external solution contained (in mM): 130 NaCl, 3 KCl, 30 tetraethylammonium chloride, 1 CaCl2, 0.5 CdCl2, 1 MgCl2, 10 D-glucose and 10 HEPES (pH 7.3 adjusted with NaOH, and mOsm/L = 315). Patch pipettes were filled with an internal solution containing (in mM): 140 CsF, 1.1Cs-EGTA, 10 NaCl, and 15 HEPES (pH 7.3 adjusted with CsOH, and mOsm/L = 300). Peak Na^+ current was acquired by applying 150 ms voltage steps from – 70 to +60 mV in 5-mV increments from a holding potential of – 60 mV to obtain the current–voltage (I–V) relation.
Normalization of currents to each cell’s capacitance (pF) was performed to allow for collection of current density data. For I–V curves, functions were fitted to data using a nonlinear least-squares analysis. I–V curves were fitted using double Boltzmann functions: f=a+g1/(1+exp((x−V1/21)/k1))+g2/(1+exp(−(x−V1/22)/k2)) where x is the membrane potential, V 1/2 is the midpoint potential and k is the corresponding slope factor for single Boltzmann functions. Double Boltzmann fits were used to describe the shape of the curve, not to imply the existence of separate channel populations. Numbers 1 and 2 simply indicate first and second midpoints; a along with g are fitting parameters.
Activation curves were obtained from the I–V curves by dividing the peak current at each depolarizing step by the driving force according to the equation: G = I/(V mem – E rev), where I is the peak current, V mem is the membrane potential and E rev is the reversal potential. The conductance (G) was normalized against the maximum conductance (G max). Steady-state inactivation (SSI) curves were obtained by applying an H-infinity protocol that consisted of 1-s conditioning prepulses from −120 to +10 mV in 10-mV increments followed by a 200 ms test pulse to +10 mV. Inactivation curves were obtained by dividing the peak current recorded at the test pulse by the maximum current (I max). Activation and SSI curves were fitted with the Boltzmann equation.

NRP1 b1 domain [4] = target: T1, NRP1 b1 domain; experiment: SPR binding to immobilized NRP1 b1 domain (Biacore 4000, CM5 chip); conditions: Figure 2B; read-out: KD (kinetics)

N=C(N)NCCC[C@H](NC(=O)c1sccc1NS(=O)(=O)c1cc(NCc2csc(N3CCNCC3)n2)cc2cccnc12)C(=O)O.O=CO [Compound 12h, (2S)-5-Guanidino-2-[[3-[[6-[(2-piperazin-1-ylthiazol-4-yl)-methylamino]-8-quinolyl]-sulfonylamino]-thiophene-2-carbonyl]-amino]-pentanoic Acid, Formic Acid]
kon (NRP1 b1 domain [1]; Figure 2B, SPR-derived binding parameters, read-out: ka): 1.16e+06 M⁻¹ s⁻¹ | Kd (NRP1 b1 domain [1]; steady-state binding, 25 °C, mean ± SD, read-out: SPR NRP1 b1 domain equilibrium KD): 600 ± 100 nM | IC50 (NRP1-a1,b1; 0.25 nM bt-VEGFA165, mean ± SEM, at least three independent experiments, read-out: Competition analysis bt-VEGFA, cell-free NRP1-a1,b1 IC50): 320 ± 40 nM | IC50 (NRP1-a1,b1; plate-based assay, Figure 2D, read-out: IC50, competitive inhibition of bt-VEGFA binding to NRP1): 362 nM and < 500 nM | effect on VEGFA-induced dye extravasation ([2]; 30 μM, 15 min preincubation of retinal explants): significantly reduced VEGFA-induced dye extravasation | effect on vascular permeability, alone ([2]; compound alone, ex vivo mouse retina): had no effect on vascular permeability | effect on Na+ currents, alone ([3]; 30 μM alone, 30 min): Neither EG00229 nor 12h alone had any obvious effect | effect on VEGFA-induced increase in Na+ currents and current density ([3]; 30 μM, then VEGFA165 1 nM 30 min, small-sized DRG neurons): equally reduced; also recorded: prevented the VEGFA-mediated increase in total sodium currents | V 1/2 activation, total Na+ ([3]; compound 30 μM + VEGFA): –16.420 ± 0.916 (10) ^b mV | V 1/2 inactivation, total Na+ ([3]; compound 30 μM + VEGFA): –47.632 ± 1.411 (10) mV | V 1/2 activation, total Na+ ([3]; compound alone, 30 μM): –16.819 ± 0.840 (10) ^b mV | V 1/2 inactivation, total Na+ ([3]; compound alone, 30 μM): –52.032 ± 2.123 (10) mV | Kd (NRP1 b1 domain [4]): 346 nM
